Measured values from patent US10858360B2, “Tricyclic gyrase inhibitors” (priority 2011, dated 2020).
Converted amounts (≈) assume the structure as drawn. Where two headings read alike, the source gives them in different places.

Key:
[1] = system: S. aureus ATCC 13709; assay: MIC, S. aureus ATCC 13709 (Alamar Blue broth microdilution); format: cell-based; conditions: for MIC: Staphylococcus aureus, ATCC13709, S. aureus
[2] = system: E. coli ATCC 25922; assay: MIC, E. coli ATCC 25922; format: cell-based; conditions: for MIC: Escherichia coli, ATCC25922, E. coli
[3] = Alamar Blue read after overnight incubation at 35° C.
[4] = S. aureus, Alamar Blue read after overnight incubation at 35° C.
[5] = E. coli, Alamar Blue read after overnight incubation at 35° C.

SMILES	MIC [1, 3]	MIC [2, 3]	also measured
CNc1cccc2c1[nH]c1nc(Oc3cnc(C)nc3)nc(N3C[C@@H](N)C4(CC4)C3)c12 [3.48]	2 µg/mL (≈ 4.8 µM)	8 µg/mL (≈ 19.2 µM)	–
CNc1cc(F)cc2c1[nH]c1nc(Oc3cnc4c(c3)ncn4C3CC3)nc(N3CC4C[C@@H](N)C4C3)c12 (some centres unmarked) [4.363]	≤ 0.5 µg/mL	1 µg/mL (≈ 2 µM)	–
CNc1cc(F)cc2c1[nH]c1nc(Oc3cnc(C)nc3)nc(N3CC4CCC(N)C3C4)c12 (centres unmarked) [4.123]	–	–	MIC Sa [1, 4]: 16 µg/mL (≈ 35.7 µM); MIC Ec [2, 5]: >16 µg/mL
CNc1cc(F)cc2c1[nH]c1nc(Oc3cnc(C(F)(F)F)nc3)nc(N3C[C@@H]4[C@@H](N)[C@@H]4C3)c12 [4.280]	≤ 0.5 µg/mL	≤ 0.5 µg/mL	–
CNc1cc(F)cc2c1[nH]c1nc(Oc3cnc4cccnc4c3)nc(N3CC[C@]4(C[C@@H]4N)C3)c12 [4.040]	≤ 0.5 µg/mL	≤ 0.5 µg/mL	–
CNc1cc(F)cc2c1[nH]c1nc(Oc3cnc(N)nc3)nc(N3CC4CNC(C4)C3)c12 (centres unmarked) [4.175]	≤ 0.5 µg/mL	8 µg/mL (≈ 18.4 µM)	–
CNc1cc(Cl)cc2c1[nH]c1nc(Oc3cnc(C)nc3)nc(N3CC4CCCNC4C3)c12 (centres unmarked) [6.13]	–	–	MIC Sa [1]: ≤0.5 µg/mL; MIC Ec [2]: ≤0.5 µg/mL
CNc1cc(F)cc2c1[nH]c1nc(Oc3cnc(N)nc3)nc(N3C4CCC3CC(N)C4)c12 (centres unmarked) [4.183]	1 µg/mL (≈ 2.22 µM)	8 µg/mL (≈ 17.8 µM)	–
CNc1cc(F)cc2c1[nH]c1nc(Oc3cnc(CC(=O)N4CCOCC4)nc3)nc(N3C[C@H](N)C4(CC4)C3)c12 [4.369]	≤ 0.5 µg/mL	1 µg/mL (≈ 1.83 µM)	–
CNc1cccc2c1[nH]c1nc(Oc3cncnc3)nc(N3CC4CCC(N)C4C3)c12 (centres unmarked) [3.15]	1 µg/mL (≈ 2.4 µM)	8 µg/mL (≈ 19.2 µM)	–
CNc1cc(F)cc2c1[nH]c1nc(Oc3cnc(C(C)(C)O)nc3)nc(N3CC4(CC[C@H]4N)C3)c12 [4.413]	≤ 0.5 µg/mL	≤ 0.5 µg/mL	–
CNc1cc(F)cc2c1[nH]c1nc(Oc3cnc(SC)nc3)nc(N3CC4C(N)C4C3)c12 (centres unmarked) [4.193]	≤ 0.5 µg/mL	≤ 0.5 µg/mL	–
CNc1cc(F)cc2c1[nH]c1nc(Oc3cnc(SC)nc3)nc(N3CC4CC(N)C4C3)c12 (centres unmarked) [4.196]	≤ 0.5 µg/mL	≤ 0.5 µg/mL	–
CNc1cc(F)cc2c1[nH]c1nc(Oc3cncnc3)nc(N3C[C@@H](N)C4(CC4)C3)c12 [4.006]	≤ 0.5 µg/mL	1 µg/mL (≈ 2.38 µM)	–
CNc1cc(F)cc2c1[nH]c1nc(Oc3cnc4c(c3)ncn4C)nc(N3CC4CC(N)C4C3)c12 (centres unmarked) [4.226]	–	–	MIC Sa [1, 4]: ≤0.5 µg/mL; MIC Ec [2, 5]: 2 µg/mL (≈ 4.22 µM)
CNc1cc(F)cc2c1[nH]c1nc(Oc3cnc(C)nc3)nc(N3CC(N)C4(CC4)C3)c12 (centres unmarked) [4.065]	–	–	MIC Sa [1, 4]: ≤0.5 µg/mL; MIC Ec [2, 5]: ≤0.5 µg/mL

SMILES	MIC [1, 3]	MIC [2, 3]	also measured
CNc1cc(F)cc2c1[nH]c1nc(Oc3cncc([S+](C)[O-])c3)nc(N3CC4C(N)C4C3)c12 (centres unmarked) [4.351]	–	–	MIC Sa [1, 4]: ≤0.5 µg/mL; MIC Ec [2, 5]: 2 µg/mL (≈ 4.28 µM)
CNc1cc(F)cc2c1[nH]c1nc(Oc3cnc4c(c3)ncn4C)nc(N3CCC(N)C3)c12 (centres unmarked) [4.225]	–	–	MIC Sa [1, 4]: ≤0.5 µg/mL; MIC Ec [2, 5]: 2 µg/mL (≈ 4.47 µM)
CNc1cccc2c1[nH]c1nc(Sc3cnc4cccnc4c3)nc(N3CCCCC(N)C3)c12 (centres unmarked) [1.45]	1 µg/mL (≈ 2.12 µM)	4 µg/mL (≈ 8.5 µM)	–
CNc1cc(F)cc2c1[nH]c1nc(Oc3ccc4c(c3)C(=O)NC4)nc(N3CC4(CCC4N)C3)c12 (centres unmarked) [4.270]	–	–	MIC Sa [1, 4]: ≤0.5 µg/mL; MIC Ec [2, 5]: 2 µg/mL (≈ 4.22 µM)
Cc1ncc(Oc2nc(N3C[C@H](N)C4(CC4)C3)c3c(n2)[nH]c2c(N(C)C(=O)[C@H](C)NC(=O)[C@H](C)N)cc(F)cc23)cn1 [4.425]	> 16 µg/mL	> 16 µg/mL	–
CNc1cc(F)cc2c1[nH]c1nc(Oc3cncc(C(N)=O)c3)nc(N3CC(N)C4(CC4)C3)c12 (centres unmarked) [4.238]	–	–	MIC Sa [1, 4]: 2 µg/mL (≈ 4.32 µM); MIC Ec [2, 5]: >16 µg/mL
CNc1cc(F)cc2c1[nH]c1nc(Oc3cnc4c(ccn4C)c3)nc(N3CC4CC(N)C4C3)c12 (centres unmarked) [4.328]	≤ 0.5 µg/mL	1 µg/mL (≈ 2.12 µM)	–
CNc1cc(F)cc2c1[nH]c1nc(Oc3cnc(C)nc3)nc(N3C[C@H](N)[C@@H](O)C3)c12 [4.136]	–	–	MIC Sa [1, 4]: 2 µg/mL (≈ 4.71 µM); MIC Ec [2, 5]: 8 µg/mL (≈ 18.8 µM)
CNc1cc(F)cc2c1[nH]c1nc(Oc3cnc(SC)nc3)nc(N3CCC4(C[C@H]4N)C3)c12 (some centres unmarked) [4.203]	–	–	MIC Sa [1, 4]: ≤0.5 µg/mL; MIC Ec [2, 5]: ≤0.5 µg/mL
CNc1cc(F)cc2c1[nH]c1nc(Oc3cnc4c(c3)C(=O)NC4)nc(N3CC4C[C@@H](N)C4C3)c12 (some centres unmarked) [4.357]	≤ 0.5 µg/mL	4 µg/mL (≈ 8.43 µM)	–
CNc1ncnc2c1[nH]c1nc(Oc3cnc(C)nc3)nc(N3CC4C(N)C4C3)c12 (centres unmarked) [7.05]	8 µg/mL (≈ 19.8 µM)	64 µg/mL (≈ 158 µM)	–
CNc1cc(F)cc2c1[nH]c1nc(Oc3cnc(C4CCC4)nc3)nc(N3CC4CC(N)C4C3)c12 (centres unmarked) [4.285]	≤ 0.5 µg/mL	≤ 0.5 µg/mL	–
CNc1cccc2c1[nH]c1nc(Oc3cnc(C)nc3)nc(N3CC4C(C3)C4NC(=O)CN)c12 (centres unmarked) [3.18]	4 µg/mL (≈ 8.7 µM)	> 16 µg/mL	–
CNc1cc(F)cc2c1[nH]c1nc(Oc3cnc(C(C)(C)C)nc3)nc(N3CCC4CNC4C3)c12 (centres unmarked) [4.317]	≤ 0.5 µg/mL	2 µg/mL (≈ 4.2 µM)	–
CNc1cc(F)cc2c1[nH]c1nc(Oc3cnc(N(C)C)nc3)nc(N3CC4C(N)C4C3)c12 (centres unmarked) [4.208]	≤ 0.5 µg/mL	≤ 0.5 µg/mL	–
